These results are taken from the METLIN SMRT retention time set (Domingo-Almenara et al. 2019).

This series is described as follows: gradient 5% acetonitrile 3 min, to 50% in 2 min, to 85% in 15 min, held 3 min, 100 µL/min. To be noted: column: Zorbax Extend-C18 2.1 x 50 mm; eluents: water / acetonitrile, 0.1% formic acid. In a few lines: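 Mixtures of ~100 pure standards were chromatographed on a Zorbax Extend-C18 column (2.1 × 50 mm, 1.8 μm) at 100 μL/min using water and acetonitrile, each with 0.1% formic acid. Detection used a quadrupole time-of-flight mass spectrometer in positive and negative ionization mode, and data collection spanned 3 months. Retention time was obtained from adduct peaks picked computationally and each checked manually.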
On to `CCCCn1nc2ccc(S(=O)(=O)N3CCCCC3)cn2c1=O`, for which the RP-LC retention time was 887 s. `CCOC(=O)C(=O)N1CCN(c2ncnc3c2nnn3C)CC1` displayed an RP-LC retention time of 643 s. Take `CCOC(=O)Cc1cc(=O)oc2cc(O)ccc12`: the RP-LC retention time was found to be 677 s.

`CCC1CN2C=Nc3oc(C)c(C(=O)Nc4ccc(C(F)(F)F)cc4)c3C2=N1` (stereo unspecified): the RP-LC retention time worked out at 753 s. Turning to `CC(=O)NCc1nc2ccccc2n1CC(=O)Nc1ccccc1C`, the RP-LC retention time amounted to 617 s. Compound `Cc1ccc(NC(=O)NCC(c2cccnc2)c2cn(C)c3ccccc23)cc1C` (stereo unspecified) registered an RP-LC retention time of 753 s. `COc1ccc(NC(=O)Cn2ccnc2-c2ccnc(N3CCSCC3)c2)cc1OC` came in with an RP-LC retention time of 619 s. Take `c1ccc(-c2nc3ncc4c(n3n2)CCCCC4)cc1`: the RP-LC retention time is 892 s. `COc1ccc(-c2noc(CCCC(=O)Nc3nc(-c4ccccc4)cs3)n2)cc1`: the RP-LC retention time was determined as 1060 s. The value for `CCOc1ccc(NC(=O)Cc2c(C)nn(-c3nc(-c4ccc(F)cc4)cs3)c2C)cc1` was 1200 s; that for `CCc1cc(=O)n(CC(=O)Nc2cc(F)ccc2F)c(-c2ccccc2)n1` was 1180 s; that for `CC(=O)Nc1nc(C)c(-c2ccc(Cl)c(S(=O)(=O)NCCO)c2)s1` was 685 s. For `Cc1cccc(N2CCN(c3ncc(C(=O)O)c(C)n3)CC2)c1`, the RP-LC retention time amounted to 945 s.

Turning to `COC[C@@H]1CN(S(=O)(=O)c2ccc(F)cc2)C[C@H]1c1ccncc1`, the RP-LC retention time was 639 s. As for `CN(C(=O)C1=Cc2ccccc2OC=C1)c1ccccc1`, the figure is 1020 s; as for `O=C(Nc1cnc(N2CCCCCC2)nc1)C1CC1`, 714 s; as for `Cc1ccc(NS(=O)(=O)c2cc(-c3[nH]ncc3C(=O)N(C)C)oc2C)cc1C`, 729 s. `CCc1ccc(C(=O)CC2(O)C(=O)Nc3ccc(C)cc32)cc1` (stereo unspecified): the RP-LC retention time was 804 s. The value for `Cc1noc(-c2cc(=O)n(CC(=O)Nc3ccccc3Cl)c3ccccc23)n1` was 900 s; that for `COc1cccc(CNC(=O)N2CCc3nc(-c4ccccc4)sc3C2)c1` was 891 s. As for `Cc1nn2c(CNS(=O)(=O)c3ccc(Cl)cc3C)c(-c3ccccc3)nc2s1`, the figure is 973 s. The value for `Cc1cccc2nnc(N3CCC(C(=O)NCc4ccccc4F)CC3)n12` was 591 s; that for `CCN1C(=O)C2(CCN(S(=O)(=O)c3ccc(Cl)cc3C)CC2)c2ccccc21` was 1200 s; that for `Cc1cccc(Nc2ncccc2C(=O)O)c1C` was 707 s. Compound `CCOc1nc2ccccc2nc1N1CCCC(C(=O)Nc2cc(C)cc(C)c2)C1` (stereo unspecified) gave an RP-LC retention time of 1320 s. In turn, `Brc1cn2c(Nc3ccc4c(c3)OCO4)c(-c3ccccc3)nc2cn1` gave an RP-LC retention time of 940 s. As for `COc1ccc(-c2nc3c(C)cccn3c2Nc2ccc(C)cc2)cc1`, the figure is 736 s; as for `O=C(NCC1(CO)CC1)C(=O)Nc1cccc(N2CCCCC2=O)c1`, 610 s; as for `CCOc1ccc(CC(=O)NC2CCN(c3cc(-c4ccc(Cl)cc4)[nH]n3)C2)cc1OCC` (stereo unspecified), 803 s. The value for `O=C(O)CCC1CCN(S(=O)(=O)c2cccc(F)c2)CC1` was 765 s; that for `Cc1ccc(-n2c(=O)n(C)c(=O)c3cc(C(=O)Nc4ccccc4)cnc32)cc1` was 926 s; that for `CCN1CCN(C(=O)CC2CCN(S(=O)(=O)c3ccc(Cl)s3)CC2)CC1` was 647 s. Turning to `CCCCn1cc(S(=O)(=O)N2CCN(c3ccc(C)cc3)CC2)c2cccnc21`, the RP-LC retention time was determined as 1220 s. The value for `COc1ccc(C(C)NC(=O)C2CC(=O)N(c3ccc4c(c3)CCN4C(C)=O)C2)cc1` (stereo unspecified) was 688 s; that for `O=C(Cn1cccc1-c1nnc(-c2ccccc2)o1)N1CCc2ccccc2C1` was 986 s.

For `Cn1cccc1CN(C(=O)C1CCC1)C1CC1`, the RP-LC retention time stood at 796 s.

In turn, `CC(=O)N1c2ccc(S(=O)(=O)N3CCCC3C(=O)Nc3cc(C)ccn3)cc2CC1C` (stereo unspecified) returned an RP-LC retention time of 617 s. `CCN1CCN(C(=O)Nc2ccc(C(=O)OC)cc2)c2cccnc21` had an RP-LC retention time of 621 s. The value for `Cc1nn(C(C)C(=O)Nc2cccc(Cl)c2)c(=O)c2c(-n3cccc3)n(-c3ccccc3)nc12` (stereo unspecified) was 1200 s. The value for `Cc1ccc2c(c1)N(S(C)(=O)=O)CCC(C(=O)Nc1c(C)cccc1C)O2` (stereo unspecified) was 930 s; that for `NS(=O)(=O)c1ccc(NC(=O)C2CCCN(c3ccc(=O)n(-c4cccc(F)c4)n3)C2)cc1` (stereo unspecified) was 703 s; that for `CCCNC(=O)Cc1c(C)nn(-c2nc(-c3ccc(C)cc3)cs2)c1C` was 1070 s. With `CC(C(=O)NCCCN1CCN(C)CC1)n1c(=O)c(C(F)(F)F)nc2ccccc21` (stereo unspecified), the RP-LC retention time stood at 603 s.

In the case of `CC1CCCCN1CCNC(=O)C1CCCN(c2cnc3nccnc3c2)C1` (stereo unspecified), the RP-LC retention time was 570 s. In turn, `CC1CCN(CC2CCN(S(=O)(=O)c3cccc(Cl)c3)CC2)CC1` gave an RP-LC retention time of 691 s. As for `CCn1cc(S(=O)(=O)Nc2ccc(F)cc2Cl)c2cccnc21`, the figure is 870 s. As for `COc1cc(C(=O)N2CCC(CC(=O)NC3CC3)CC2)cc(OC)c1OC`, the figure is 647 s; as for `CCc1nc(-c2cc(S(=O)(=O)NCC(=O)NC3CC3)c(C)s2)no1`, 740 s; as for `O=C(N[C@@H]1CN(c2ccncn2)C[C@H]1CO)c1nccc2ccccc12`, 581 s. The compound `Cc1nc(C)c(C(=O)N2CCCCCCNC(=O)[C@@H]3CCC[C@@H]32)s1` yielded an RP-LC retention time of 680 s.

On to `O=C1CC(c2ccc(O)cc2)Oc2cc(O)cc(O)c21` (stereo unspecified), for which the RP-LC retention time is 784 s. The compound `CCOC(=O)CNC(=O)N1CCCN(c2nc3cc(Br)ccc3n3cccc23)CC1` registered an RP-LC retention time of 671 s. The value for `COc1ccc(-c2cc(N3CCN(C(=O)c4ccc(C(C)(C)C)cc4)CC3)ncn2)cc1` was 795 s. As for `COc1cccc(-c2nnc(Cc3nc(-c4ccncc4)no3)o2)c1`, the figure is 739 s; as for `Cn1c(=O)sc2cc(S(=O)(=O)N3CCC(C(=O)Nc4cccc(C(F)(F)F)c4)CC3)ccc21`, 970 s.

The compound `Cc1ccc(CNC(=O)C2CCCN(c3nnc(C)c4c(C)n(-c5ccccc5)nc34)C2)cc1` (stereo unspecified) came in with an RP-LC retention time of 726 s. As for `N#C/C(=C\c1ccc[nH]1)C(=O)c1ccccc1`, the figure is 892 s.

In the case of `Cn1cccc1C(=O)C(=O)Nc1ccccc1C(F)(F)F`, the RP-LC retention time was determined as 1060 s.

As for `O=C(Cn1nc(N2CCSCC2)c2ccccc2c1=O)Nc1ccc(Br)cc1F`, the RP-LC retention time amounted to 1060 s. Compound `CCn1cnc2ccc(-c3noc(COc4cccc(C)c4)n3)cc21` returned an RP-LC retention time of 808 s.

The compound `CCc1ccc(-c2noc(Cn3c(=O)n(-c4ccc(Cl)cc4)c(=O)c4sccc43)n2)cc1` displayed an RP-LC retention time of 1160 s. `CCCNC(=O)C1CCN(Cc2cn(C)c3ccc(Cl)cc23)CC1` gave an RP-LC retention time of 650 s. The value for `Cc1cc(C(=O)Nc2nc3c(s2)CN(C(=O)c2nc4ccccc4s2)CC3)no1` was 870 s; that for `COc1ccc(Nc2ncccc2S(N)(=O)=O)cc1Cl` was 801 s; that for `Cc1ccc(CNC(=O)c2ccc3c(c2)nc2n3CCN(C(C)C)C2=O)cc1C` was 767 s. The compound `O=C(NCC1CC1)c1cn(-c2ccc(NC(=O)C3CC3)cn2)cn1` returned an RP-LC retention time of 651 s. Regarding `Cn1cc(C(CNC(=O)Nc2cccc(Cl)c2)c2cccnc2)c2ccccc21` (stereo unspecified), the RP-LC retention time worked out at 756 s.

Regarding `Cc1scc(CN2CCN(c3ccccn3)CC2)c1C`, the RP-LC retention time was 578 s. The value for `O=C(NCCCN1CCOCC1)C1CCc2sc(C(=O)N3CCOCC3)cc2C1` (stereo unspecified) was 568 s; that for `O=C(c1ccc2c(c1)OCO2)N1CCCn2nc(-c3cccs3)cc2C1` was 796 s; that for `COc1ccc(S(=O)Cc2ccc(C(=O)NCCN(C)C)o2)cc1` (stereo unspecified) was 530 s.

Compound `COc1ccccc1CNC(=O)C1(c2ccc(NC(C)=O)cc2)CCC1` gave an RP-LC retention time of 736 s. The value for `O=C(Nc1cccc(Cl)c1F)N1CCCC1c1nncn1-c1ccccc1` (stereo unspecified) was 745 s; that for `O=C(NCc1ccc(F)c(Cl)c1)C1CCN(c2nnc3ccccn23)CC1` was 686 s; that for `Cc1ccc(C)c(NC(=O)NCC2CCOCC2)c1` was 705 s. In turn, `O=C(/C=C/c1cccc(S(=O)(=O)Nc2ccccc2)c1)NO` yielded an RP-LC retention time of 679 s.

With `Cc1ccc(S(=O)(=O)N2CCc3nc[nH]c3C2)cc1Cl`, the RP-LC retention time was found to be 642 s. Compound `COc1ccc(CN2C(=O)c3ccccc3C2C(=O)NC2CCCC2)c(OC)c1` (stereo unspecified) had an RP-LC retention time of 848 s. In turn, `CCn1cc(CC(=O)NC2CCN(Cc3ccccc3)CC2)c2cccnc21` returned an RP-LC retention time of 564 s. The value for `CCCn1cc(CCNS(=O)(=O)c2cccc3nsnc23)c2cccnc21` was 791 s. As for `CCCNC(=O)C1CCCN(c2ccc(SCC(=O)Nc3ccccc3Cl)nn2)C1` (stereo unspecified), the RP-LC retention time came to 617 s.
